Reference: ChEMBL document CHEMBL1130561, “Batrachotoxin binding site antagonists” (Bioorg Med Chem Lett, 1997)

Tests used:
[1] = molecular target: Sodium channel alpha subunits; brain (Types I, II, III) (Rattus norvegicus, UniProt P04775+P04774+P08104); experiment: Inhibition of [3H]batrachotoxin binding to rat brain neuronal membranes; format: cell membranes, Membrane
[2] = molecular target: Sodium channel alpha subunits; brain (Types I, II, III) (Homo sapiens, UniProt P35498+Q99250+Q9NY46); experiment: Antagonism of batrachotoxin-mediated sodium ion uptake into cultured neuroblastoma cells; format: functional

| SMILES | IC50 [1] [µM] | IC50 [2] [µM] |
| --- | --- | --- |
| COC[C@H](CCOC(=O)c1ccccc1)C[C@@H](O)[C@@]12CCCC3C[C@@](OC)(CCC31C)O2 | 10 | 5 |
| CC12CC[C@]3(OCc4cccc(Br)c4)CC1CCC[C@@]2(CO)O3 | 10 | 80 |
| CO[C@]12CCC3(C)C(CCC[C@@]3([C@H](O)CCCN(C)C)O1)C2 | 130 | 200 |
| CO[C@]12CCC3(C)C(CCC[C@@]3([C@H](O)C[C@@H](CCOC(=O)c3ccccc3)CN(C)C)O1)C2 | 3.6 | 0.5 |
| CN(C)CCC[C@@H](O)[C@@]12CCCC3C[C@@](OCc4ccccc4)(CCC31C)O2 | 4.5 | 4 |
| CO[C@]12CCC3(C)C(CCC[C@@]3(CO)O1)C2 | 2000 | 1000 |
| CCCCNc1ccc(C(=O)OCCN(C)C)cc1 [TETRACAINE] | 6 |  |
| COc1ccc(C(=O)O[C@H]2CC[C@@]3(C)[C@@H]4CC[C@H]5[C@]6(O)C[C@H](O)[C@@]7(O)[C@@H](CN8C[C@@H](C)CC[C@H]8[C@@]7(C)O)[C@]6(O)C[C@@]53O[C@]24O)cc1OC [VERATRIDINE] | 22 |  |
